The source of these data is patent US20190076452A1, “THERAPEUTIC COMBINATIONS FOR TREATING NEOPLASIA” (MEDIMMUNE LIMITED, priority 2014, published 2019).

For assay [1], the system named is CT26 tumors. As to the kind of experiment: Established CT26 tumors in immunocompetent Balb/C mice. It counts as in vivo. As to conditions: maximally tolerated doses, tumors approximately 200 mm^3, immunocompetent mice. As for the experimental part: (§1) FIG. 4A is a graph showing tumor volume in CT26 tumor-bearing athymic nude mice dosed with Doxil (5 mg/kg) or Doxorubicin (5 mg/kg) as indicated. FIG. 4B is a graph showing tumor volume in CT26 tumor-bearing Balb/C mice dosed with Doxil (5 mg/kg) or Doxorubicin (5 mg/kg) as indicated. FIG. 4C is a graph showing tumor volume in CT26 tumor-bearing athymic nude mice dosed with gemcitabine (75 mg/kg) as indicated. FIG. 4D is a graph showing tumor volume in CT26 tumor-bearing Balb/C mice dosed with gemcitabine (75 mg/kg) as indicated. FIG. 4E is a graph showing tumor volume in CT26 tumor-bearing athymic nude mice dosed with oxiplatin (8 mg/kg) as indicated. FIG. 4F is a graph showing tumor volume in CT26 tumor-bearing Balb/C mice dosed with oxiplatin (8 mg/kg) as indicated. Arrows indicate dose administration.
A CT26 model was used in several studies. CT26 cells are murine colon cancer cells. CT26 cells were obtained from the ATCC (Manassas, Va.), and were grown with RPMI supplemented with 10% fetal bovine serum. Following receipt, cell lines were re-authenticated using STR-based DNA profiling and multiplex PCR (IDEXX Bioresearch, Columbia, Mo.). Cells were grown in monolayer culture, harvested by trypsinizatin, and implanted subcutaneously into the right flank of 6-8 week old female Balb/C (CT26), C57/Bl6 (MCA205), or 4-6 week athymic female nude mice (Harlan, Indianapolis, Ind.). For the CT26 tumor model, 5×10^5 cells were implanted in the right flank using a 26-gauge needle. […] The number of animals per group ranged from between 10-12 animals per group as determined based on sample size calculations using nQuery software. Both tumor and body weight measurements were collected twice weekly and tumor volume calculated using the equation (L×W^2)/2, where L and W refers to the length and width dimensions, respectively. Error bars were calculated as standard error of the mean. The general health of mice was monitored daily and all experiments were conducted in accordance to AAALAC and MedImmune IACUC guidelines for humane treatment and care of laboratory animals.

For assay [2], the system named is CT26 cells. As to the kind of experiment: CT26 tumor model, preventative treatment before measurable tumor. It counts as in vivo, Balb/C mice. On the procedure:
A CT26 model was used in several studies. CT26 cells are murine colon cancer cells. CT26 cells were obtained from the ATCC (Manassas, Va.), and were grown with RPMI supplemented with 10% fetal bovine serum. Following receipt, cell lines were re-authenticated using STR-based DNA profiling and multiplex PCR (IDEXX Bioresearch, Columbia, Mo.). Cells were grown in monolayer culture, harvested by trypsinizatin, and implanted subcutaneously into the right flank of 6-8 week old female Balb/C (CT26), C57/Bl6 (MCA205), or 4-6 week athymic female nude mice (Harlan, Indianapolis, Ind.). For the CT26 tumor model, 5×10^5 cells were implanted in the right flank using a 26-gauge needle. Antibodies were obtained from Anti-PD-1 (RMP1-14), anti-PD-L1 (10F.9G2), anti-CTLA-4 (9D9), and mouse IgG2b control (MPC-11). Mouse OX40 fusion protein (OX40 FP) and Rat IgG2a isotype control antibodies were produced by MedImmune (Gaithersburg, Md.). All antibodies and OX40 FP were dosed via intraperitoneal injection. Doxil (Bluedoor Pharma, Rockville, Md.) and doxorubicin (Henry Schein, Melville, N.Y.) were dosed via intravenous administration. In some studies, isotype controls were administered to mice as a cocktail of rat IgG2a and mouse IgG2b. At the beginning of treatment, mice were either randomized by tumor volume (established-tumor studies) or by body weight (preventative studies). The number of animals per group ranged from between 10-12 animals per group as determined based on sample size calculations using nQuery software. Both tumor and body weight measurements were collected twice weekly and tumor volume calculated using the equation (L×W^2)/2, where L and W refers to the length and width dimensions, respectively. Error bars were calculated as standard error of the mean. The general health of mice was monitored daily and all experiments were conducted in accordance to AAALAC and MedImmune IACUC guidelines for humane treatment and care of laboratory animals.

Assay [3] relates to CT26 tumors. Kind of assay: Established CT26 tumors in T cell-deficient athymic nude mice. It counts as in vivo. Conditions: maximally tolerated doses, tumors approximately 200 mm^3, immunodeficient mice. On the procedure: as §1, with “FIG. 4F is a graph showing tumor volume in CT26 tumor-bearing Balb/C mice dosed with oxiplatin (8 mg/kg) as indicated. Arrows indicate dose administration.” left out
(§2) A CT26 model was used in several studies. […] The number of animals per group ranged from between 10-12 animals per group as determined based on sample size calculations using nQuery software. Both tumor and body weight measurements were collected twice weekly and tumor volume calculated using the equation (L×W^2)/2, where L and W refers to the length and width dimensions, respectively. Error bars were calculated as standard error of the mean. The general health of mice was monitored daily and all experiments were conducted in accordance to AAALAC and MedImmune IACUC guidelines for humane treatment and care of laboratory animals.

For assay [4], the system named is xenograft model. As to conditions: T-cell dependent mechanism; cited from earlier work.
For assay [5], the system named is CT26 tumors. As to the kind of experiment: Established CT26 tumor model, Doxil combined with immunotherapies. It counts as in vivo, Balb/C mice. Conditions: maximally efficacious doses.
Source text: FIGS. 5A-5L show synergistic anti-tumor responses of Doxil in combination with multiple immunotherapies in an established CT26 tumor model. FIG. 5A is a graph depicting tumor volume in untreated mice. FIG. 5B is a graph depicting tumor volume in mice administered Doxil. FIG. 5C is a graph depicting tumor volume in mice administered OX40L fusion protein (FP). FIG. 5D is a graph depicting tumor volume in mice administered α-PD-1. FIG. 5E is a graph depicting tumor volume in mice administered α-PD-L1. FIG. 5F is a graph depicting tumor volume in mice administered α-CTLA-4. FIG. 5G is a graph depicting tumor volume in mice administered GITR ligand fusion protein (GITRL FP). FIG. 5H is a graph depicting tumor volume in mice administered Doxil+OX40L FP. […]
as §2, with “animals. […]” for “animals.”

Assay [6] deals with MCA205 tumors. Kind of assay: Established MCA205 syngeneic tumor model. It counts as in vivo, C57/Bl6 mice. As to conditions: maximally efficacious doses. The text has this: FIGS. 7A-7L show synergistic anti-tumor responses of Doxil in combination with α-PD-1, α-PD-L1 and α-CTLA-4 antibodies in the MCA205 syngeneic model. FIG. 7A is a graph depicting tumor volume in untreated mice. FIG. 7B is a graph depicting tumor volume in mice administered Doxil. FIG. 7C is a graph depicting tumor volume in mice administered OX40L fusion protein (FP). FIG. 7D is a graph depicting tumor volume in mice administered α-PD-1. FIG. 7E is a graph depicting tumor volume in mice administered α-PD-L1. FIG. 7F is a graph depicting tumor volume in mice administered α-CTLA-4. FIG. 7G is a graph depicting tumor volume in mice administered GITR ligand fusion protein (GITRL FP). […]
As CT26 is highly sensitive to immunotherapies, it was determined whether Doxil could enhance the activity of immunotherapies in a less sensitive model, MCA205. […]
MCA205 cells were obtained from Agonox (Portland, Oreg.) and grown in RPMI supplemented with 10% fetal bovine serum. […] The number of animals per group ranged from between 10-12 animals per group as determined based on sample size calculations using nQuery software. Both tumor and body weight measurements were collected twice weekly and tumor volume calculated using the equation (L×W^2)/2, where L and W refers to the length and width dimensions, respectively. Error bars were calculated as standard error of the mean. […]

`O=C1[O][Pt]2([NH][C@@H]3CCCC[C@H]3[NH]2)[O]C1=O` [Oxaliplatin]: in assay [1], the anti-tumor activity entry is “increased antitumor activity”.
On to `COc1cccc2c1C(=O)c1c(O)c3c(c(O)c1C2=O)C[C@@](O)(C(=O)CO)C[C@@H]3O[C@H]1C[C@H](N)[C@H](O)[C@H](C)O1` [Doxorubicin, doxorubicin], for which the “No. of CRs” value in assay [2] (1 mg/kg) was 0/10; in assay [2] (4 mg/kg), 2/10. The “number of complete responders” value in assay [2] (doxorubicin 4 mg/kg alone or combined with antibody) came to 2 animals. In addition, the anti-tumor activity result in assay [1] and in assay [3] was “did not elicit anti-tumor activity” throughout.
Regarding `Nc1ccn([C@@H]2O[C@H](CO)[C@@H](O)C2(F)F)c(=O)n1` [gemcitabine], the anti-tumor activity result in assay [1] and in assay [3] was “significant anti-tumor activity” throughout.

B1: MEDI4736: human monoclonal antibody directed against human PD-L1 (antibody, V domains shown)
VH: EVQLVESGGGLVQPGGSLRLSCAASGFTFSRYWMSWVRQAPGKGLEWVANIKQDGSEKYYVDSVKGRFTISRDNAKNSLYLQMNSLRAEDTAVYYCAREGGWFGELAFDYWGQGTLVTVSS
VL: EIVLTQSPGTLSLSPGERATLSCRASQRVSSSYLAWYQQKPGQAPRLLIYDASSRATGIPDRFSGSGSGTDFTLTISRLEPEDFAVYYCQQYGSLPWTFGQGTKVEIK
Take B1: the tumor growth entry in assay [4] was “inhibits tumor growth”.

B2: OX40 FP: mouse OX40 fusion protein produced by MedImmune (protein)
chain: SSSPAKDPPIQRLRGAVTRCEDGQLFISSYKNEYQTMEVQNNSVVIKCDGLYIIYLKGSFFQEVKIDLHFREDHNPISIPMLNDGRRIVFTVVASLAFKDKVYLTVNAPDTLCEHLQINDGELIVVQLTPGYCAPEGSYHSTVNQVPL
modifications: left off: a dimerising Fc or GST
notes: mouse OX40 fusion protein produced by MedImmune
Take B2: the values for the anti-tumor activity entry in assay [5] (tumors 200-300 mm^3) and in assay [6] (tumors 100-150 mm^3) were “low to moderate activity” and “minimally active”, respectively. The complete responders entry in assay [5] (tumors 200-300 mm^3, out of 12 mice) is “a few”. The complete response entry in assay [6] (tumors 100-150 mm^3, out of 12 mice) is reported as “one”.
